Tests used:
[1] = test system: normal human astrocytes (NHA); details: azathioprine 10 μM, 24 hours later, before and after the treatment
[2] = test system: GBM #2 glioblastoma multiform patient originated cells; experiment: Neurosphere formation inhibition, GBM #2; format: cell-based, human; design: key: S: strong effect; I: intermediate effect; R: rare effect; details: GBM #2, type A (proneural), Azathioprine 1 μM, duration 15 day
Procedure: Particularly, to investigate neurosphere formation, glioblastoma multiform cells were cultured for a certain time and the cells were distributed again in culture vessels, followed by additional culture. Then, the number of newly generated neurospheres was measured. First, the glioblastoma multiform patient originated cells were sub-cultured, which were distributed in a 96-well plate (20, 50, and 200 cells in 50 μl of culture medium/well). […] Then, the compound of formula 1 (azathioprine) and the compound of Comparative Example 1 (Temodal) were added to 50 μl of cell culture medium with the same concentrations as the above once a week, which were then cultured for 7˜23 days. When neurosphere was formed at least 50 μm in the control group not treated with the compound, the number of neurospheres in each well was counted to compare the neurosphere formation before and after the treatment of the compound of formula 1 (azathioprine) and the compound of Comparative Example 1 (Temodal).
The glioblastoma multiform cells used in this experiment were classified into 4 types, which are type A, type B, type C, and type D, according to the gene expression pattern. Methylation of MGMT (O6-me-G methyltransferase), the DNA repair protein, was confirmed in each cell line. […]

[3] = test system: NCI-H23 Human lung adenocarcinoma; experiment: Secondary cytotoxicity test, NCI-H23; format: cell-based
Procedure: (§1) Particularly, the cell growth inhibition effect was measured by WST-1 cell proliferation assay [http://www.roche-applied-science.com/PROD_INF/MANUALS/CELL_MAN/apoptosis—087—088.pdf]. The compound of formula 1 was loaded in a 384-well cell culture plate. Three types of glioblastoma multiform cell lines [proneural subtype (559T), mesenchymal subtype (592T), and classical subtype (626T)], normal human astrocytes (NHA), a lung cancer cell line (A549), and a glioblastoma multiform cell line (U87MG) were distributed in the plate at the density of 4.5×10^3 cells/well, and the medium was filled up to make 50 μl per well. At this time, the concentration of the solvent DMSO for the compound of formula 1 was no more than 0.2%. After culturing the cells for 72 hours, 5 mg/ml of WST-1 reagent was added by 5 μl per well, followed by reaction for 3˜4 hours. Then OD450 was measured to investigate the effect of the compound of formula 1 on cell proliferation.
(§2) To investigate the cell growth inhibition effect of the compound of formula 1 of the present invention (azathioprine) in many different cell lines, secondary cytotoxicity test was performed with the cell lines listed in Table 5 by the same manner as described in Example 1.

[4] = test system: mesenchymal subtype glioblastoma multiform (592T); experiment: cells; details: Homo sapiens, 72 h
Procedure: as §1

[5] = test system: classical subtype glioblastoma multiform (626T); experiment: cells; details: Homo sapiens, 72 h
Procedure: as §1

[6] = test system: lung cancer cell line (A549); experiment: cells; details: Homo sapiens, A549, 72 h
Procedure: as §1

[7] = test system: proneural subtype glioblastoma multiform (559T); experiment: cells; details: Homo sapiens, 72 h
Procedure: as §1

[8] = test system: glioblastoma multiform cell line (U87MG); experiment: cells
Procedure: as §1

[9] = test system: HCT-116 Human colorectal carcinoma; experiment: Secondary cytotoxicity test, HCT-116; format: cell-based
Procedure: as §1, §2

[10] = test system: Hela Human adenocarcinoma; experiment: Secondary cytotoxicity test, Hela; format: cell-based
Procedure: as §1, §2

[11] = test system: U2932 Human DLBCL (Diffuse large B-cell lymphoma); experiment: Secondary cytotoxicity test, U2932; format: cell-based
Procedure: as §1, §2

[12] = test system: GBM #8 glioblastoma multiform patient originated cells; experiment: Neurosphere formation inhibition, GBM #8; format: cell-based, human; design: key: S: strong effect; I: intermediate effect; R: rare effect; details: GBM #8, type C (mesenchymal), Azathioprine 1 μM, duration 15 day
Procedure: Particularly, to investigate neurosphere formation, glioblastoma multiform cells were cultured for a certain time and the cells were distributed again in culture vessels, followed by additional culture. Then, the number of newly generated neurospheres was measured. First, the glioblastoma multiform patient originated cells were sub-cultured, which were distributed in a 96-well plate (20, 50, and 200 cells in 50 μl of culture medium/well). 2, 6, and 20 μM of the compound of formula 1 (azathioprine) and the compound of Comparative Example 1 (Temodal) were treated thereto by 50 μl per well to make the final concentrations of 1, 3, and 10 μM. Then, the compound of formula 1 (azathioprine) and the compound of Comparative Example 1 (Temodal) were added to 50 μl of cell culture medium with the same concentrations as the above once a week, which were then cultured for 7˜23 days. When neurosphere was formed at least 50 μm in the control group not treated with the compound, the number of neurospheres in each well was counted to compare the neurosphere formation before and after the treatment of the compound of formula 1 (azathioprine) and the compound of Comparative Example 1 (Temodal).
The glioblastoma multiform cells used in this experiment were classified into 4 types, which are type A, type B, type C, and type D, according to the gene expression pattern. […]

[13] = test system: MKN45 Human stomach adenocarcinoma; experiment: Secondary cytotoxicity test, MKN45; format: cell-based; details: MKN-45
Procedure: as §1, §2

[14] = read-out: Cell Growth Inhibition (% Inhibition)
[15] = Homo sapiens, U-87 MG, 72 h, read-out: Cell Growth Inhibition (% Inhibition)

In the case of Cn1cnc([N+](=O)[O-])c1Sc1ncnc2nc[nH]c12 [Azathioprine, 6-(1-methyl-4-nitro-1H-imidazol-5-ylthio)-7H-purine], the “concentrations of azathioprine metabolites (TGMP, MeTIMP, MeTGMP, TIMP) in cell lysate” value [1] is reported as “not much changed”, the “inhibition of neurosphere formation” value [2] is reported as “S” and the IC50 [3] is reported as 4.9 µM. The GI50 [4] was 5.5 µM, the inhibition at 0.032 µM [4, 14] was -3.9% and the inhibition at 0.1 µM [4, 14] was 2.1%. For the same compound, the inhibition at 0.32 µM [4, 14] was 8.3%, the inhibition at 1 µM [4, 14] was 22.6% and the inhibition at 3.2 µM [4, 14] was 46%. It also gave an inhibition at 10 µM [4, 14] of 57.2%, a GI50 [5] of 3.1 µM and an inhibition at 0.032 µM [5, 14] of 20.2%. The inhibition at 0.1 µM [5, 14] was 34.9%, the inhibition at 0.32 µM [5, 14] was 30% and the inhibition at 1 µM [5, 14] was 42.5%. For the same compound, the inhibition at 3.2 µM [5, 14] was 61.8%, the inhibition at 10 µM [5, 14] was 76.3% and the GI50 [6] was > 10 µM. For the same compound, the inhibition at 0.032 µM [6, 14] was 6.7%, the inhibition at 0.1 µM [6, 14] was 15.3% and the inhibition at 0.32 µM [6, 14] was 21.5%. For the same compound, the inhibition at 1 µM [6, 14] was 24.2%, the inhibition at 3.2 µM [6, 14] was 26% and the inhibition at 10 µM [6, 14] was 32%. The GI50 [7] was 1.3 µM, the inhibition at 0.032 µM [7, 14] was -4.2% and the inhibition at 0.1 µM [7, 14] was 2.6%. The inhibition at 0.32 µM [7, 14] was 9.7%, the inhibition at 1 µM [7, 14] was 35.9% and the inhibition at 3.2 µM [7, 14] was 65.8%. For the same compound, the inhibition at 10 µM [7, 14] was 78.6%, the GI50 ([8]; Homo sapiens, U-87 MG, 72 h) was > 10 µM and the inhibition at 0.032 µM [8, 15] was 3.2%. It also gave an inhibition at 0.1 µM [8, 15] of -9.9%, an inhibition at 0.32 µM [8, 15] of 10.5% and an inhibition at 1 µM [8, 15] of 6.5%. For the same compound, the inhibition at 3.2 µM [8, 15] was 3.2%, the inhibition at 10 µM [8, 15] was -12.7% and the “cancer cell growth inhibition” value ([8]; U87MG, WST-1, up to 10 μM) was “did not inhibit the cancer cell growth”. The IC50 [9] was 5.5 µM, the IC50 [10] was 2.9 µM and the IC50 [11] was 4.2 µM. The “inhibition of neurosphere formation” value [12] was “S” and the IC50 [13] was 1.2 µM.

Source: patent US20150141439A1, “PHARMACEUTICAL COMPOSITION FOR THE PREVENTION OR TREATMENT OF BRAIN TUMOR OR TEMODAL RESISTANT GLIOBLASTOMA MULTIFORM COMPRISING AZATHIOPRINE AS AN ACTIVE INGREDIENT” (KOREA RESEARCH INSTITUTE OF CHEMICAL TECHNOLOGY, priority 2012, published 2015)
